According to article PMC9699427 (Viruses, 2022):

Experiments:
CYP2C9 = CYP2C9 (Homo sapiens, UniProt P11712); experiment: Cytochrome P450 inhibition, human liver microsomes, diclofenac
[1] = Acute toxicity, single intragastric dose; format: in vivo; settings: male and female BALB/C mice
CYP2D6 = CYP2D6 (Homo sapiens, UniProt P10635); experiment: Cytochrome P450 inhibition, human liver microsomes, dextromethorphan
CYP1A2 = target: T1, CYP1A2 (Homo sapiens, UniProt P05177); experiment: Cytochrome P450 inhibition, human liver microsomes, phenacetin
T1 sequence (P05177 1-516): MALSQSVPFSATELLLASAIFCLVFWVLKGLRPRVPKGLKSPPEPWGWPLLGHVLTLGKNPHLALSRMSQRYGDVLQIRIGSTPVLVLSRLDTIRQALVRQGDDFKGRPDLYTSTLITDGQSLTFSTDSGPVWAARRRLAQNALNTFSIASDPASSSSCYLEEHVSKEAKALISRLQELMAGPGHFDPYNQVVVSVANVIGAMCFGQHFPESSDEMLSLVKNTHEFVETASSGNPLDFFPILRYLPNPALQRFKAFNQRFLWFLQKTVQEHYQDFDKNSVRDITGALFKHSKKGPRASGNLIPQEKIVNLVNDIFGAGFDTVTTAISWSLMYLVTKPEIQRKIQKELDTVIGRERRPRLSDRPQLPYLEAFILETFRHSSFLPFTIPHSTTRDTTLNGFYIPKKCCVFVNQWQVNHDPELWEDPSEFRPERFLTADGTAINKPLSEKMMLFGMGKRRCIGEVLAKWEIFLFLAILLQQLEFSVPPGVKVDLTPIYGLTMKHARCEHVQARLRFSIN

HIV-1IIIB [2] = experiment: Anti-HIV-1 activity, syncytia (CPE) count in C8166 cells; format: cell-based; settings: Human immunodeficiency virus 1
HIV-1IIIB [3] = experiment: Anti-HIV-1 activity in the presence of human serum, p24 in C8166; settings: Human immunodeficiency virus 1, C8166, HIV-1IIIB
[4] = test system: C8166 cells infected with HIV-1IIIB or TZM-bl cells infected with HIV-1YU-2; experiment: Combination antiviral activity assay (CompuSyn CI and DRI); format: cell-based
[5] = Cytotoxicity, MTT assay, C8166 cells; format: cell-based; settings: human, three days, read-out: CC50 (Mean ± SD)
[6] = Cytotoxicity, MTT assay, H9/HIV-1IIIB cells; format: cell-based; settings: human, three days, read-out: CC50 (Mean ± SD)
CYP3A4M = CYP3A4M (Homo sapiens, UniProt P08684); experiment: Cytochrome P450 inhibition, human liver microsomes, midazolam
CYP3A4M, sequence (P08684 whole entry): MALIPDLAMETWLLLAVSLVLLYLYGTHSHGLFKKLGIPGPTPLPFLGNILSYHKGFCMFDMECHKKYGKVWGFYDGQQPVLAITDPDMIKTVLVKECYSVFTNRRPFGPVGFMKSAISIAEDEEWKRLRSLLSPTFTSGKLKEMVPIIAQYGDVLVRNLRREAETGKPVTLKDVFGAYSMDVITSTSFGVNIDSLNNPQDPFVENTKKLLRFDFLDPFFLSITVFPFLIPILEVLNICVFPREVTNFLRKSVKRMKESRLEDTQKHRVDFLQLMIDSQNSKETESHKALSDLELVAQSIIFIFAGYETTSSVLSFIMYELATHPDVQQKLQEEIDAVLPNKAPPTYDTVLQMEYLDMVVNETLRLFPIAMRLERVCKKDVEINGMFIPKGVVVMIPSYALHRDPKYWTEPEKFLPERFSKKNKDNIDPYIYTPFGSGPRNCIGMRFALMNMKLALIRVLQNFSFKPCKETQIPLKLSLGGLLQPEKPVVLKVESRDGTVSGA

CYP2C19 = CYP2C19 (Homo sapiens, UniProt P33261); experiment: Cytochrome P450 inhibition, human liver microsomes, S-mephenytoin
CYP2C19, sequence (P33261 whole entry): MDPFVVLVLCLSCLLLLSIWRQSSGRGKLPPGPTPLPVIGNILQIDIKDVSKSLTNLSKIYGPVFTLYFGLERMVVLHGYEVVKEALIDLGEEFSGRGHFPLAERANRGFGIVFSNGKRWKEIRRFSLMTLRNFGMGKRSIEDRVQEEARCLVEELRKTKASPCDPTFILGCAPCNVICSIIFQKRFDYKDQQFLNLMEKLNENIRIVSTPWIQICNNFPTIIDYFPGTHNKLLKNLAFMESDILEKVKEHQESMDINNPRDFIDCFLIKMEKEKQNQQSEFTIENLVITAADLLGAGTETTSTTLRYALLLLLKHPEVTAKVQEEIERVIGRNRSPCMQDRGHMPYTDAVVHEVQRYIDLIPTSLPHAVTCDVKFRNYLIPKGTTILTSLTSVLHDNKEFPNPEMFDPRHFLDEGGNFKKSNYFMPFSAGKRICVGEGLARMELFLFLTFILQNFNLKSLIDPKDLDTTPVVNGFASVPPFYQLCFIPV

[7] = Cytotoxicity, MTT assay, MT-4 cells; format: cell-based; settings: human, three days, read-out: CC50 (Mean ± SD)
[8] = Cytotoxicity, MTT assay, PBMCs; format: cell-based; settings: human, PBMC, seven days, read-out: CC50 (Mean ± SD)
[9] = single drug in combination K-5a2+3TC
[10] = single drug in combination K-5a2+AZT
[11] = single drug in combination K-5a2+DC521022
[12] = single drug in combination K-5a2+DRV
[13] = single drug in combination K-5a2+DTG
[14] = single drug in combination K-5a2+ETR
[15] = single drug in combination K-5a2+FTC
[16] = single drug in combination K-5a2+MVC
[17] = single drug in combination K-5a2+RAL
[18] = single drug in combination K-5a2+T-20
[19] = single drug in combination K-5a2+TDF

CYP2C9, sequence (P11712 whole entry): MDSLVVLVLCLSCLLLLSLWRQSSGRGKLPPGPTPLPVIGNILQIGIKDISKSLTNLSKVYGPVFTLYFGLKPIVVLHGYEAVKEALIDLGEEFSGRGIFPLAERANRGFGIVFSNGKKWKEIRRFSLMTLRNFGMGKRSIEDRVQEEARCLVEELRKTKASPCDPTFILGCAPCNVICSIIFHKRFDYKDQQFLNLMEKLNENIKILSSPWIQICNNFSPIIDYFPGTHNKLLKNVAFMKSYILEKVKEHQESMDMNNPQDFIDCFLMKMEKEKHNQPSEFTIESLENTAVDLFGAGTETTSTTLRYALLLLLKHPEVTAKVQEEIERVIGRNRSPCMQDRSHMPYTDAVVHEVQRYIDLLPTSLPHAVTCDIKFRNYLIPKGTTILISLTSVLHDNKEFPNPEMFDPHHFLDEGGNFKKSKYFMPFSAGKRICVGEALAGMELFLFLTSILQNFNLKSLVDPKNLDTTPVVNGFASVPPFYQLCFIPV
CYP2D6, sequence (P10635 whole entry): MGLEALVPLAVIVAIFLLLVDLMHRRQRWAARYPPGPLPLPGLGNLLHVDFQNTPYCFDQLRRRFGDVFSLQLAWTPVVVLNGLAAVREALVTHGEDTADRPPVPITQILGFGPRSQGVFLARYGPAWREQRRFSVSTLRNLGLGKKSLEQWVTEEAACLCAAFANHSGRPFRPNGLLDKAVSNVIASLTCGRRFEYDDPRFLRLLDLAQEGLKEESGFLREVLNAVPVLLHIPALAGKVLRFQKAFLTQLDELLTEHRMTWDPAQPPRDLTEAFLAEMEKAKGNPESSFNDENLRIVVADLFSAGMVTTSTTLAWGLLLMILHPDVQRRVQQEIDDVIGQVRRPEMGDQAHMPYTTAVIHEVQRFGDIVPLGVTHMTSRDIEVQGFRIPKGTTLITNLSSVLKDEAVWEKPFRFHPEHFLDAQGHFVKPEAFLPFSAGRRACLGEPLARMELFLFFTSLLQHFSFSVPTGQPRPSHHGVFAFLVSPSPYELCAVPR

Cc1cc(C#N)cc(C)c1Oc1nc(NC2CCN(Cc3ccc(S(N)(=O)=O)cc3)CC2)nc2ccsc12 [K-5a2]
IC50 (CYP2C9): > 50 µM | MTD ([1]; both, mouse, in vivo, po, 5000 mg/kg, single gavage dose, read-out: Maximum tolerated dose): > 5000 mg/kg | Clinical symptoms and body weight ([1]; single gavage dose of 5000 mg/kg): no obvious clinical symptoms and no obvious abnormalities in body weight | IC50 (CYP2D6): > 50 µM | IC50 (CYP1A2): > 50 µM | EC50 (HIV-1IIIB [2]): 0.00188 ± 0.00087 µM | EC50 (HIV-1IIIB [3]; C8166, p24, 20% human serum): 0.00783 ± 0.00173 µM | EC50 (HIV-1IIIB [3]; C8166, p24, 40% human serum): 0.00787 ± 0.00601 µM | DRI Value ED75 [4, 9]: 2.79 ± 0.14 | DRI Value ED90 [4, 9]: 2.81 ± 0.58 | DRI Value ED95 [4, 9]: 2.85 ± 0.93 | DRI Value ED75 [4, 10]: 13.26 ± 9.86 | DRI Value ED90 [4, 10]: 7.60 ± 3.58 | DRI Value ED95 [4, 10]: 5.48 ± 2.08 | DRI Value ED75 [4, 11]: 1.61 ± 0.50 | DRI Value ED90 [4, 11]: 1.71 ± 0.48 | DRI Value ED95 [4, 11]: 1.78 ± 0.47 | DRI Value ED75 [4, 12]: 2.26 ± 0.28 | DRI Value ED90 [4, 12]: 2.57 ± 0.19 | DRI Value ED95 [4, 12]: 2.85 ± 0.57 | DRI Value ED75 [4, 13]: 1.69 ± 0.37 | DRI Value ED90 [4, 13]: 1.94 ± 0.10 | DRI Value ED95 [4, 13]: 2.19 ± 0.50 | DRI Value ED75 [4, 14]: 1.47 ± 0.24 | DRI Value ED90 [4, 14]: 1.40 ± 0.12 | DRI Value ED95 [4, 14]: 1.35 ± 0.07 | DRI Value ED75 [4, 15]: 5.00 ± 0.71 | DRI Value ED90 [4, 15]: 3.58 ± 0.51 | DRI Value ED95 [4, 15]: 2.85 ± 0.41 | DRI Value ED75 [4, 16]: 1.30 ± 0.17 | DRI Value ED90 [4, 16]: 1.28 ± 0.15 | DRI Value ED95 [4, 16]: 1.27 ± 0.15 | DRI Value ED75 [4, 17]: 2.45 ± 0.95 | DRI Value ED90 [4, 17]: 2.47 ± 0.85 | DRI Value ED95 [4, 17]: 2.49 ± 0.79 | DRI Value ED75 [4, 18]: 5.13 ± 0.38 | DRI Value ED90 [4, 18]: 4.68 ± 0.43 | DRI Value ED95 [4, 18]: 4.43 ± 0.75 | DRI Value ED75 [4, 19]: 2.30 ± 0.73 | DRI Value ED90 [4, 19]: 2.15 ± 0.47 | DRI Value ED95 [4, 19]: 2.06 ± 0.33 | CC50 at 3 days [5]: > 50 µM | CC50 at 3 days [6]: 28.1 ± 5.03 µM | IC50 (CYP3A4M): 18.9 µM | IC50 (CYP2C19): > 50 µM | CC50 at 3 days [7]: 26.6 ± 2.03 µM | CC50 at 7 days [8]: 39.7 ± 6.29 µM
